In patent US12226412B2, “Heteroaryl-ketone fused azadecalin glucocorticoid receptor modulators” (Corcept Therapeutics, Inc., priority 2012, dated 2025):

Key:
human recombinant GR = target: T1, human recombinant GR (Homo sapiens, UniProt P04150); experiment: Human glucocorticoid receptor (GR) fluorescence polarisation (FP) binding assay; details: human recombinant GR, fluorescence polarisation binding assay; read-out: GR binding
T1 construct: purchased PanVera P2812
T1 sequence (P04150 1-777): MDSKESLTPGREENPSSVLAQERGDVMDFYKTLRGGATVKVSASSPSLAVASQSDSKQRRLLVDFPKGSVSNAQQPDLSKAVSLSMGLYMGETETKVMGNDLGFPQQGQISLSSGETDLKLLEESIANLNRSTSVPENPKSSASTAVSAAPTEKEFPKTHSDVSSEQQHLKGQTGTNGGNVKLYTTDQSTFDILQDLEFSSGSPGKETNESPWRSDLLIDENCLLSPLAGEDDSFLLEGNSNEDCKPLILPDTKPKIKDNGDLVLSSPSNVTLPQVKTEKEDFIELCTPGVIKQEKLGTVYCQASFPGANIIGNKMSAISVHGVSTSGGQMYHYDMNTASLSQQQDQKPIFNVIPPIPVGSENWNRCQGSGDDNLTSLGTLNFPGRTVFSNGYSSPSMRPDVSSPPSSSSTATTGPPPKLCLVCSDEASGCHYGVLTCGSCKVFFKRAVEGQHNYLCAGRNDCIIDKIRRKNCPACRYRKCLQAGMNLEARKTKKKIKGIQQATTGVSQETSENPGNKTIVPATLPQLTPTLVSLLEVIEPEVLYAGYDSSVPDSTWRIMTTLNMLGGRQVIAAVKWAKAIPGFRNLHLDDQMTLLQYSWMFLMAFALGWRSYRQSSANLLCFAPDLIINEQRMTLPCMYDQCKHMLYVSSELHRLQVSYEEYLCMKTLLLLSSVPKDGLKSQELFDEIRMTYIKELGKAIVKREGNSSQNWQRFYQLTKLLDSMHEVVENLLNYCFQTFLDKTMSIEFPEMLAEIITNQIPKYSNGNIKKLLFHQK
In short: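 Competition fluorescence polarisation: 0.5 nM GS Red labelled glucocorticoid and 1 nM recombinant human GR with 8-point half-log compound series, 1% DMSO, 4 h room temperature, potassium phosphate pH 7.4 buffer with molybdate, EDTA, DTT. Affinity derived from the drop in polarisation, normalised to blank wells.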

[1] = system: induction of TAT by dexamethasone in HepG2 cells; experiment: HepG2 tyrosine aminotransferase (TAT) assay; type: cell-based, human; details: HepG2 cells, challenge of 100 nM dexamethasone; Ki from IC50 by Cheng and Prusoff equation

| SMILES | Ki (human recombinant GR) [nM] | Ki [1] [nM] |
| --- | --- | --- |
| O=C(c1ccccn1)[C@]12Cc3cnn(-c4ccc(F)cc4)c3C=C1CCN(S(=O)(=O)c1ccc(F)c(F)c1F)C2 [Example 11AC, (R)-(1-(4-fluorophenyl)-6-((2,3,4-trifluorophenyl)sulfonyl)-4,4a,5,6,7,8-hexahydro-1H-pyrazolo[3,4-g]isoquinolin-4a-yl)(pyridin-2-yl)methanone] | < 0.5 | < 20 |
| Cc1ccnc(C(=O)[C@]23Cc4cnn(-c5ccc(F)cc5)c4C=C2CCN(S(=O)(=O)c2ccc4c(c2)OCCO4)C3)c1 [Example 11AR, (R)-(6-((2,3-dihydrobenzo[b][1,4]dioxin-6-yl)sulfonyl)-1-(4-fluorophenyl)-4,4a,5,6,7,8-hexahydro-1H-pyrazolo[3,4-g]isoquinolin-4a-yl)(4-methylpyridin-2-yl)methanone] | < 0.5 | < 20 |
| O=C(c1ncco1)[C@]12Cc3cnn(-c4ccc(F)cc4)c3C=C1CCN(S(=O)(=O)c1ccc(C(F)(F)F)cc1)C2 [Example 1F, (R)-(1-(4-fluorophenyl)-6-((4-(trifluoromethyl)phenyl)sulfonyl)-4,4a,5,6,7,8-hexahydro-1H-pyrazolo[3,4-g]isoquinolin-4a-yl)(oxazol-2-yl)methanone] | < 0.5 | 20 to 100 |
| Cc1ncc(S(=O)(=O)N2CCC3=Cc4c(cnn4-c4ccc(F)cc4)C[C@]3(C(=O)c3cc(C(F)(F)F)ccn3)C2)n1C [Example 11BW, (R)-(6-((1,2-dimethyl-1H-imidazol-5-yl)sulfonyl)-1-(4-fluorophenyl)-4,4a,5,6,7,8-hexahydro-1H-pyrazolo[3,4-g]isoquinolin-4a-yl)(4-(trifluoromethyl)pyridin-2-yl)methanone] | > 1 | 20 to 100 |
| Cc1ccc(S(=O)(=O)N2CCC3=Cc4c(cnn4-c4ccc(F)cc4)C[C@]3(C(=O)c3nccn3C)C2)cc1 [Example 13, (R)-(1-(4-fluorophenyl)-6-tosyl-4,4a,5,6,7,8-hexahydro-1H-pyrazolo [3,4-g]isoquinolin-4a-yl)(1-methyl-1H-imidazol-2-yl)methanone] | 0.5 to 1 | 20 to 100 |
| O=C(c1ccccn1)[C@]12Cc3cnn(-c4ccc(F)cc4)c3C=C1CCN(S(=O)(=O)c1ccnc(C(F)(F)F)c1)C2 [Example 11BE, (R)-(1-(4-fluorophenyl)-6-((2-(trifluoromethyl)pyridin-4-yl)sulfonyl)-4,4a,5,6,7,8-hexahydro-1H-pyrazolo[3,4-g]isoquinolin-4a-yl)(pyridin-2-yl)methanone] | < 0.5 | 20 to 100 |
| CCCn1cc(S(=O)(=O)N2CCC3=Cc4c(cnn4-c4ccc(F)cc4)C[C@]3(C(=O)c3ccccn3)C2)nn1 [Example 11CP, (R)-(1-(4-fluorophenyl)-6-((1-propyl-1H-1,2,3-triazol-4-yl)sulfonyl)-4,4a,5,6,7,8-hexahydro-1H-pyrazolo[3,4-g]isoquinolin-4a-yl)(pyridin-2-yl)methanone] | < 0.5 | < 20 |
| Cc1ccc(S(=O)(=O)N2CCC3=Cc4c(cnn4-c4ccc(F)cc4)C[C@]3(C(=O)c3ccccn3)C2)cc1Cl [Example 11BG, (R)-(6-((3-chloro-4-methylphenyl)sulfonyl)-1-(4-fluorophenyl)-4,4a,5,6,7,8-hexahydro-1H-pyrazolo[3,4-g]isoquinolin-4a-yl)(pyridin-2-yl)methanone] | < 0.5 | < 20 |
| O=C(c1nccs1)[C@]12Cc3cnn(-c4ccc(F)cc4)c3C=C1CCN(S(=O)(=O)c1cccc(N3CCCC3)c1)C2 [Example 6A, (R)-(1-(4-fluorophenyl)-6-((3-(pyrrolidin-1-yl)phenyl)sulfonyl)-4,4a,5,6,7,8-hexahydro-1H-pyrazolo[3,4-g]isoquinolin-4a-yl)(thiazol-2-yl)methanone] | < 0.5 | ≥ 100 |
| Cc1ccnc(C(=O)[C@]23Cc4cnn(-c5ccc(F)cc5)c4C=C2CCN(S(=O)(=O)c2ccc(F)c(F)c2)C3)c1 [Example 11U, (R)-(6-((3,4-difluorophenyl)sulfonyl)-1-(4-fluorophenyl)-4,4a,5,6,7,8-hexahydro-1H-pyrazolo[3,4-g]isoquinolin-4a-yl)(4-methylpyridin-2-yl)methanone] | < 0.5 | < 20 |
